Laboratory results taken from patent US12338483B2, “Compositions and methods for logic-gated profiling of biologic activity” (Georgia Tech Research Corporation, priority 2019, dated 2025).
Bridge positions count the residues as written; N and C are the ends. Square brackets hold non-standard residues; d marks the D form. Ends that are not written are not given here.

What was measured:
GzmB = molecular target: T1, GzmB (Homo sapiens, UniProt P10144) and West Nile Virus NS3 protease; assay: Incubation of GzmB/MMP AND-gate sensor with GzmB and West Nile Virus NS3 protease; format: biochemical; settings: sensor 5 μM; 300 nM GzmB and 100 nM protease; 1.5 hours; FIG. 21
T1 construct: West Nile Virus NS3 protease
Protocol: (§1) Next the protease activity sensor was incubated with GzmB and either MMP8 or one of two viral proteases (West Nile Virus NS3 protease and Tobacco Etch Virus protease) to show the AND-gate sensor can distinguish immune activity in tumors from viral infections (FIG. 21). The sensor produced low signals with the viral proteases compared to MMP8.
(§2) FIGS. 20-21 show mean change in fluorescence (7D, kinetic trace) after incubation of GzmB/MMP AND-gate sensor (5 μM) with (7C) 300 nM GzmB and/or 100 nM different MMP's or (7D) 300 nM GzmB and 100 nM West Nile Virus NS3 protease, Tobacco Etch Virus protease, or MMP8 for 1.5 hours, n=3.

[1] = molecular target: T2, GzmB and Tobacco Etch Virus protease (Homo sapiens, UniProt P10144); assay: Incubation of GzmB/MMP AND-gate sensor with GzmB and Tobacco Etch Virus protease; format: biochemical; settings: sensor 5 μM; 300 nM GzmB and 100 nM protease; 1.5 hours; FIG. 21
T2 construct: Tobacco Etch Virus protease
Protocol: as §1, §2

GzmB and MMPs = assay: Cleavage assay of GzmB/MMP AND-gate sensor with each MMP with and without GzmB; format: biochemical; settings: sensor 5 μM; 300 nM GzmB and/or 100 nM different MMPs; 1.5 hours; all three MMPs; FIG. 20
Protocol: Then a cleavage assay was performed with the GzmB/MMP AND-gate sensor, testing the probe with each MMP with and without GzmB (FIG. 20).
as §2

GzmB and Thrb = assay: Cleavage assay of GzmB/Thrb AND-gate sensor with GzmB and/or Thrb; format: biochemical
Protocol: Next, the AND-gate logic protease sensor was tested in a cleavage assay.
Thus, the presence of even small amounts of a protease can be detected if the other protease is also present. FIGS. 13-14 show: mean change in fluorescence after incubation of the AND-gate sensor with (FIG. 13) 9.2 nM Thrb and varying concentrations of GzmB (0-150 nM) or (FIG. 14) 300 nM GzmB and varying concentrations of Thrb (0-4.6 nM) for 2 hours, n=2. For all fluorescent readings, samples were excited at 485 nm, emission was measured at 528 nm, and samples were incubated at 37° C.

[2] = molecular target: T3, GzmB in supernatant of OT1 T-cell co-incubation with EL4 or EG7-OVA cells, and Thrb (UniProt P00734+P04187); assay: Cleavage assay with supernatant of transgenic T-cell killing assay as GzmB source, plus Thrb; format: cell-based, mice; settings: nanoparticle-conjugated sensor 1 μM; 10% supernatant from EL4 and EG7-OVA co-incubation and/or 3.7 Thrb; 12 hours; FIG. 17
T3 construct: using the supernatant as a GzmB source and adding Thrb; endogenous in cells; host or cells: T cells from OT1 mice co-incubated with EL4 or EG7-OVA cells; supernatant used at 10%
Protocol: FIGS. 15-17 show an example of the disclosed AND-gate protease activity sensors used with a living system. The sensors were evaluated in an in vitro transgenic T-cell killing assay in which cytotoxic T-cells taken from OT1 mice were co-incubated with target cells EL4 and EG7-OVA (FIG. 15). OT1 T cells can recognize the OVA antigen and mount an immune response, so the T-cells would theoretically respond to the EG7-OVA cells but not to the EL4 cells. Supernatant was harvested from the co-incubation and quantified the immune response by GzmB secretion using ELISA (FIG. 16). The concentration was measured after overnight co-incubation at 37° C. with target cells, as measured by ELISA, n=3. It was confirmed that co-incubation of OT1 cells with EG7-OVA cells, but not with EL4 cells, increases GzmB secretion by OT1 cells.
Then we cleavage assays were run with the AND-gate sensors, using the supernatant as a GzmB source and adding Thrb. […] Data for EL4 and EG7-OVA were normalized by subtraction of trace using OT1-only supernatant, and data for EL4+Thrb and EG7-OVA+Thrb were normalized by subtraction of trace using OT1-only supernatant and Thrb.

T3 sequence (P04187 21-247, one chain of several): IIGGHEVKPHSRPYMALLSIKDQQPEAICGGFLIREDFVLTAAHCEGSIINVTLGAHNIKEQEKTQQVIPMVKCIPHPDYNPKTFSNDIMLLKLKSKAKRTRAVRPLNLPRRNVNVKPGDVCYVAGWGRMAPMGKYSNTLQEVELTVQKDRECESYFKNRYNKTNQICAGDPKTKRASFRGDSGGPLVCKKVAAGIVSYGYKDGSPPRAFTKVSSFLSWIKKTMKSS
T2 sequence (P10144 21-247): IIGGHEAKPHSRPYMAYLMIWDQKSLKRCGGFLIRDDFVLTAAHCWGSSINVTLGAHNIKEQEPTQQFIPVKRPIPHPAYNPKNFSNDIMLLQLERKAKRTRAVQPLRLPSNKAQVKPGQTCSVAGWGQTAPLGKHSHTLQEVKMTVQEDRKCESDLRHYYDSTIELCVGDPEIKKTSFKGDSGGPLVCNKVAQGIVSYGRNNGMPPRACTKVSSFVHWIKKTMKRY
T1 sequence (P10144 21-247): as above

| Substance | signal with GzmB and West Nile Virus NS3 protease compared to MMP8 (GzmB) | signal with GzmB and Tobacco Etch Virus protease compared to MMP8 [1] | change of fluorescent signal on addition of GzmB to MMPs (GzmB and MMPs) | sensitivity of fluorescence to protease concentration (GzmB and Thrb; 9.2 nM Thrb with 0-150 nM GzmB, or 300 nM GzmB with 0-4.6 nM Thrb, 2 hours, FIGS. 13-14) | fluorescent signal, both proteases present together (GzmB and Thrb; nanoparticle-conjugated sensor 1 μM, 125 nM GzmB and 3.7 nM Thrb, 12 hours, FIG. 12) | fluorescent signal, either protease present alone (GzmB and Thrb; nanoparticle-conjugated sensor 1 μM, 125 nM GzmB or 3.7 nM Thrb, 12 hours, FIG. 12) | signal (mean change in fluorescence) with T-cell co-incubation supernatant [2] |
| --- | --- | --- | --- | --- | --- | --- | --- |
| GzmB/MMP AND-gate sensor: AND-gate protease activity sensor (SEQ ID NO: 2) that probes both GzmB and MMPs (CGIEFDSGGKGAPAALRAAGGCK; MOD_RES (11)..(11) D-Gly) | low signals | low signals | drastically increased the fluorescent signal by over two-fold |  |  |  |  |
| GzmB/Thrb AND-gate sensor: Disulfide-cyclized peptide (SEQ ID NO: 1) with DABCYL quencher, 5-FAM reporter, GzmB and Thrb substrates and an azide for click conjugation (KCGIEFDSGGKGG[dF]PRSGGGCK; disulfide 2-21 (inferred); also: DABCYL quencher, 5-FAM reporter, azide for click conjugation) |  |  |  | very sensitive to small changes in the concentration of both proteases even in the nanomolar range | high fluorescent signal | not when either protease is present alone | high signal was attained only when Thrb was added to the GzmB-high OT1/EG7-OVA supernatant |
